Assay results published in patent US20220009918A1, “Chemical Compounds” (GlaxoSmithKline Intellectual Property Development Limited, priority 2018, published 2022).

Target: T1, human H-PGDS (Homo sapiens, UniProt O60760)
T1 construct: Full length human H-PGDS cDNA (Invitrogen Ultimate ORF IOH13026) was amplified by PCR; 6-His (N); TEV protease cleavage site (N); made in house; host or cells: E. coli BL21 (DE3*) for H-PGDS; Sf9 insect cells (baculovirus) for COX-2
Experiment: H-PGDS RapidFire high throughput mass spectrometry assay
Assay type: biochemical
Conditions: inhibition of conversion of PGH2 to PGD2 by H-PGDS; for IC50: mean pIC50, read-out: Potency Range (mean pIC50) (converted)
Procedure: H-PGDS RapidFire™ High Throughput Mass Spectrometry Assay
The H-PGDS RapidFire™ mass spectrometric assay monitors conversion of prostaglandin H2 (PGH2) to prostaglandin D2 (PGD2) by haematopoietic prostaglandin D synthase (H-PGDS). In the assay format described here, the substrate (PGH2) is formed in situ by the action of cyclooxygenase-2 on arachidonic acid. This first step is set up to be fast, and generates a burst of PGH2 at ˜10 μM. The PGH2 is then further converted to PGD2 by the H-PGDS enzyme. […] Plates are then read on the RapidFire™ high throughput solid phase extraction system (Agilent) which incorporates a solid phase extraction step coupled to a triple quadrupole mass spectrometer (AB SCIEX). Relative levels of PGD2 and PGF2α, which acts as a surrogate for substrate, are measured and a percent conversion calculated. Inhibitors are characterised as compounds which lower the conversion of PGH2 to PGD2.
Full length human H-PGDS cDNA (Invitrogen Ultimate ORF IOH13026) was amplified by PCR with the addition of a 5′ 6-His tag and TEV protease cleavage site. The PCR product was digested with NdeI and XhoI and ligated into pET22b+ (Merck Novagen®). Expression was carried out in E. coli strain BL21 (DE3*) using auto-induction Overnight Express™ Instant TB medium (Merck Novagen®) supplemented with 1% glycerol. The culture was first grown at 37° C. and the temperature was reduced to 25° C. when OD600 reached 2.0. Cells were harvested by centrifugation after a further 18 hours. 10 g of E. coli cell pellet was suspended to a total volume of 80 mL in lysis buffer (20 mM Tris-Cl pH 7.5, 300 mM NaCl, 20 mM imidazole, 5 mM p-mercaptoethanol, 10% glycerol). 1 mg/mL protease inhibitors (Protease Inhibitor Cocktail Set III, Merck Calbiochem®) and 1 mg/mL lysozyme were added to the cell suspension. The suspension was then sonicated for 5 min (UltraSonic Processor VCX 750, Cole-Parmer Instrument Co.) with a micro probe (50% amplitude, 10 sec on/off) and then centrifuged at 100,000 g for 90 minutes (at 4° C.). The supernatant was loaded onto a Ni-NTA HiTrap column (5 mL, GE Healthcare, pre-equilibrated in lysis buffer). The column was washed with 10 column volumes of lysis buffer and eluted with lysis buffer containing 500 mM imidazole. The pooled protein peak fractions were concentrated using a 10 kDa centrifugal filter at 3500 g and 4° C. (Amicon Ultra-15 centrifugal filter unit with Ultracel-10 membrane from Millipore). Further purification of the concentrated protein was carried out using gel filtration chromatography on a HiLoad 26/600 Superdex 75 preparative grade column (GE Healthcare Life Sciences) using 50 mM Tris pH 7.5, 50 mM NaCl, 1 mM dithiothreitol, 1 mM MgCl2. Fractions containing the protein were pooled, concentrated as described above, and stored at −80° C.
The full length human COX-2 gene (accession number L15326) was amplified by PCR to generate an EcoRI—HindIII fragment containing an in-frame FLAG tag. This was subcloned into pFastBac 1 (Invitrogen). The COX-2 FLAG plasmid was recombined into the baculovirus genome according to the BAC-to-BAC protocol described by Invitrogen. Transfection into Spodoptera frugiperda (Sf9) insect cells was performed using Cellfectin (Invitrogen), according to the manufacturer's protocol. Super Sf9 cells were cultured in EX420 media (SAFC Biosciences) to a density of approximately 1.5×10^6 cells/mL within a wave bioreactor. Recombinant virus was added at a Multiplicity of Infection (MOI) of 5 and the culture was allowed to continue for 3 days. Cells were harvested using a continuous feed centrifuge run at 2500 g at a rate of approximately 2 L/min with cooling. The resultant cell slurry was re-centrifuged in pots (2500 g, 20 min, 4° C.) and the cell paste was stored at −80° C. […]

T1 sequence (O60760 whole entry): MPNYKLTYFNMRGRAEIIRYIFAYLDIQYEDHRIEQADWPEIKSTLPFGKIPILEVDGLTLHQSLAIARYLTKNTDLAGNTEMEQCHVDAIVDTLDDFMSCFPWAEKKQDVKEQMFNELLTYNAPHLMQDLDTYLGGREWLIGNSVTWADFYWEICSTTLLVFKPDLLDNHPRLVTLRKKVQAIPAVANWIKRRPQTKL

SMILES	IC50	Potency Range (mean pIC50)
CN(C(=O)c1cnc(-c2cc(F)cc(Cl)c2)s1)C1CCNC1=O (racemic) [Example 65, Racemic 2-(3-Chloro-5-fluorophenyl)-N-methyl-N-(2-oxopyrrolidin-3-yl)thiazole-5-carboxamide]	1020 to 10000 nM	–
COc1ccc(CN2CCC(C)(NC(=O)c3cnc(-c4cc(F)cc(Cl)c4)s3)C2=O)cc1 (racemic) [Example 70, Racemic 2-(3-Chloro-5-fluorophenyl)-N-(1-(4-methoxybenzyl)-3-methyl-2-oxopyrrolidin-3-yl)thiazole-5-carboxamide]	102 to 1000 nM	–
CC1(NC(=O)c2cnc(-c3cc(F)cc(Cl)c3)s2)CCNC1=O (racemic) [Example 71, Racemic 2-(3-Chloro-5-fluorophenyl)-N-(3-methyl-2-oxopyrrolidin-3-yl)thiazole-5-carboxamide]	102 to 1000 nM	–
C[C@H]1CNC(=O)[C@H]1NC(=O)c1cnc(-c2cc(F)cc(Cl)c2)s1 (racemic) [Example 74, Racemic cis-2-(3-Chloro-5-fluorophenyl)-N-(4-methyl-2-oxopyrrolidin-3-yl)thiazole-5-carboxamide]	–	*** (*** = pIC50 7.00-7.99)
CC1(C)CC(NC(=O)c2cnc(-c3cc(F)cc(Cl)c3)[se]2)C(=O)N1 (racemic) [Example 82, Racemic 2-(3-Chloro-5-fluorophenyl)-N-(5,5-dimethyl-2-oxopyrrolidin-3-yl)-1,3-selenazole-5-carboxamide]	10.2 to 100 nM	–
CC1(C)CC(NC(=O)c2cnc(-c3cc(F)cc(Cl)c3)s2)C(=S)N1 (racemic) [Example 83, Racemic 2-(3-Chloro-5-fluorophenyl)-N-(5,5-dimethyl-2-thioxopyrrolidin-3-yl)thiazole-5-carboxamide]	1.02 to 10 nM	–
CC1(C)C[C@@H](NC(=O)c2cnc(-c3cc(F)cc(Cl)c3)s2)C(=O)N1 (single isomer, unassigned) [Example 15]	102 to 1000 nM	–
O=C(N[C@H]1CCNC1=O)c1cnc(-c2cccc3ccoc23)s1 [Example 1, (S)-2-(Benzofuran-7-yl)-N-(2-oxopyrrolidin-3-yl)thiazole-5-carboxamide]	10.2 to 100 nM	–
O=C(N[C@H]1CCNC1=O)c1cnc(-c2cccc(Cl)c2)s1 [Example 3, (S)-2-(3-Chlorophenyl)-N-(2-oxopyrrolidin-3-yl)thiazole-5-carboxamide]	10.2 to 100 nM	–
O=C(N[C@H]1CCNC1=O)c1cnc(-c2cccc(C(F)(F)F)c2)s1 [Example 4, (S)-N-(2-Oxopyrrolidin-3-v)-2-(3-(trifluoromethyl)phenyl)thiazole-5-carboxamide]	10.2 to 100 nM	–
Cc1cccc(-c2ncc(C(=O)N[C@H]3CCNC3=O)s2)c1 [Example 5, (S)-N-(2-Oxopyrrolidin-3-yl)-2-(m-tolyl)thiazole-5-carboxamide]	1.02 to 10 nM	–
O=C(N[C@H]1CCNC1=O)c1cnc(-c2cc(F)cc(Cl)c2)s1 [Example 6, (S)-2-(3-Chloro-5-fluorophenyl)-N-(2-oxopyrrolidin-3-yl)thiazole-5-carboxamide]	1.02 to 10 nM	–
O=C(N[C@H]1CCNC1=O)c1cnc(-c2cc(Cl)ccc2F)s1 [Example 7, (S)-2-(5-Chloro-2-fluorophenyl)-N-(2-oxopyrrolidin-3-yl)thiazole-5-carboxamide]	10.2 to 100 nM	–
O=C(N[C@H]1CCNC1=O)c1cnc(-c2cccc(Cl)c2F)s1 [Example 8, (S)-2-(3-Chloro-2-fluorophenyl)-N-(2-oxopyrrolidin-3-yl)thiazole-5-carboxamide]	10.2 to 100 nM	–
O=C(N[C@H]1CCNC1=O)c1cnc(-c2cc(Cl)cc(Cl)c2)s1 [Example 9, (S)-2-(3,5-Dichlorophenyl)-N-(2-oxopyrrolidin-3-yl)thiazole-5-carboxamide]	1.02 to 10 nM	–
O=C(N[C@H]1CCNC1=O)c1cnc(-c2cccc(C(F)F)c2)s1 [Example 10, (S)-2-(3-(Difluoromethyl)phenyl)-N-(2-oxopyrrolidin-3-yl)thiazole-5-carboxamide]	10.2 to 100 nM	–
